Laboratory results as given in paper PMC12492365, “Drug Interaction of Dasatinib with Thymoquinone: A Pharmacokinetic Study in Rats” (International Journal of Medical Sciences, 2025).
Like-named read-outs stand apart in the source and are kept apart here.

Key:
[1] = tested on: CYP3A2; test: Western blot of CYP3A2 protein expression in liver and lumen tissues; assay type: in vivo, Wistar rats; conditions: for Suppression of CYP3A2 upregulation: TQ 40 mg/kg p.o. seven days in DAS-treated rats vs DAS group; for Elevation of CYP3A2 protein expression: DAS 25 mg/kg p.o. vs normal controls
Description: The adult male Wistar rats (204-226 g) were procured from the College of Pharmacy Animal Care and Use Facility, King Saud University, Riyadh, Saudi Arabia. The animals were hold in polycarbonate rat cages, with 12h light/dark cycle at 25 ± 2 °C. All groups were allowed ad libitum before the study. This study was conducted following the ethical guidelines approved by the facility and the study was approved by the King Saud University College of Pharmacy Research Ethics Committee (KSU-SE-21-58). Overnight fasted animals (n=24) were divided into four groups (n=6 per group). Group I (normal controls) and Group II were administered normal saline by oral gavage for seven consecutive days. […] Group IV received TQ (40 mg/kg/day) by oral gavage for seven consecutive days. […] The collected blood was centrifuged at 3000 ×g for 10 minutes to separate the plasma, which was then collected and stored in Eppendorf tubes for UHPLC-MS/MS analysis. After completion of the study, the animals were euthanized, and liver and lumen tissues were collected for Western blot analysis. […] Briefly, DAS and ibrutinib (IBR;(internal standard, IS) were separated on an Acquity BEH C18 column. Prior to sample analysis, the method underwent validation for precision and accuracy. A non-compartmental analysis was empoyed to calculate the PK parameters of DAS using the PK Solver software (version 1.01). The liver and intestine tissues were homogenized in RIPA lysis buffer and incubated for 30 minutes, followed by centrifugation at 10,000 rpm for 20 minutes at 4 °C. The supernatants were then collected and stored at -20 °C. Total protein content was determined using the bicinchoninic acid (BCA) assay. Protein expression of CYP3A2, Pgp, and BCRP proteins were analyzed according to previously published methods, [17], [34], [35]. All data are expressed as the mean ± SEM.

[2] = tested on: Pgp; test: Western blot of Pgp protein expression in liver and lumen tissues; assay type: in vivo, Wistar rats; conditions: for Suppression of Pgp expression: TQ pretreatment in DAS-treated rats vs DAS group; for Increase of Pgp expression: DAS 25 mg/kg p.o. vs untreated animals
Description: (§1) The adult male Wistar rats (204-226 g) were procured from the College of Pharmacy Animal Care and Use Facility, King Saud University, Riyadh, Saudi Arabia. The animals were hold in polycarbonate rat cages, with 12h light/dark cycle at 25 ± 2 °C. All groups were allowed ad libitum before the study. This study was conducted following the ethical guidelines approved by the facility and the study was approved by the King Saud University College of Pharmacy Research Ethics Committee (KSU-SE-21-58). Overnight fasted animals (n=24) were divided into four groups (n=6 per group). Group I (normal controls) and Group II were administered normal saline by oral gavage for seven consecutive days. On the seventh day, Group II received a single dose of DAS (25 mg/kg, p.o.) via oral gavage. Group III received TQ (40 mg/kg, p.o.) via oral gavage for seven days, and two hours after the final TQ dose, DAS (25 mg/kg, p.o.) was administered by oral gavage. Group IV received TQ (40 mg/kg/day) by oral gavage for seven consecutive days. For the PK study, blood samples were collected via a tail vein in heparinized vacutainers at various time intervals (i.e., 0, 0.5, 1, 2, 4, 6, 8, 10, 12 h post DAS dosing). The collected blood was centrifuged at 3000 ×g for 10 minutes to separate the plasma, which was then collected and stored in Eppendorf tubes for UHPLC-MS/MS analysis. After completion of the study, the animals were euthanized, and liver and lumen tissues were collected for Western blot analysis. DAS concentrations in plasma samples were determined using an UHPLC-MS/MS method according to a previously described method. Briefly, DAS and ibrutinib (IBR;(internal standard, IS) were separated on an Acquity BEH C18 column. Prior to sample analysis, the method underwent validation for precision and accuracy. A non-compartmental analysis was empoyed to calculate the PK parameters of DAS using the PK Solver software (version 1.01).
(§2) The liver and intestine tissues were homogenized in RIPA lysis buffer and incubated for 30 minutes, followed by centrifugation at 10,000 rpm for 20 minutes at 4 °C. The supernatants were then collected and stored at -20 °C. Total protein content was determined using the bicinchoninic acid (BCA) assay. Protein expression of CYP3A2, Pgp, and BCRP proteins were analyzed according to previously published methods, [17], [34], [35].
(§3) All data are expressed as the mean ± SEM. The pharmacokinetic and protein expression data were compared using one-way analysis of variance followed by Dunnett's test and a p value of ≤0.05 was used for statistical significance.

[3] = tested on: BCRP; test: Western blot of BCRP protein expression in liver and lumen tissues; assay type: in vivo, Wistar rats; conditions: for Inhibition of BCRP protein expression: TQ pretreatment in the DAS treatment group; for Induction of BCRP protein expression: oral DAS vs untreated animals
Description: as §1, §2, §3

[4] = tested on: wistar rats; set-up: method as in PMID 23440704, PMID 32273798; conditions: ref [46], [47], cited from earlier work
[5] = Pharmacokinetic study of oral dasatinib with and without TQ pretreatment, plasma UHPLC-MS/MS, non-compartmental analysis; assay type: in vivo, Wistar rats; conditions: rats
Description: as §1, §3

[6] = tested on: rats; conditions: 30 mg/kg, no reference given; cited from earlier work
[7] = DAS 25 mg/kg p.o. alone, mean ±SEM
[8] = DAS+TQ vs DAS alone, positive = increase
[9] = TQ pretreatment vs control (DAS alone), given as decrease
[10] = male, Wistar, rat, plasma, po, DAS 25 mg/kg p.o. alone, mean ±SEM

CC1=CC(=O)C(C(C)C)=CC1=O [TQ, 2-Methyl-5-(propan-2-yl)cyclohexa-2,5-diene-1,4-dione]
Effect on CYP3A2 expressions ([1]; TQ alone 40 mg/kg/day seven days vs normal controls): did not significantly altered | Suppression of CYP3A2 upregulation ([1]; liver): 53.98% | Suppression of CYP3A2 upregulation ([1]; lumen): 40.30% | Effect on liver and lumen Pgp protein expressions ([2]; TQ pretreatment alone vs untreated animals): did not affect | Suppression of Pgp expression ([2]; liver): 47.97% | Suppression of Pgp expression ([2]; lumen): 37.72% | Effect on liver and lumen BCRP protein levels ([3]; TQ treatment alone vs normal controls): no significant changes | Inhibition of BCRP protein expression ([3]; liver): 50.48% | Inhibition of BCRP protein expression ([3]; lumen): 48.46% | maximum tolerated dose (MTD) ([4]; i.p. injection, female rats): 15 mg/kg | maximum tolerated dose (MTD) ([4]; i.p. injection, male rats): 22.5 mg/kg | maximum tolerated dose (MTD) ([4]; oral, both male and female rats): 250 mg/kg

Cc1nc(Nc2ncc(C(=O)Nc3c(C)cccc3Cl)s2)cc(N2CCN(CCO)CC2)n1 [DAS, Dasatinib]
AUMC0-∞ [5, 7]: 29259.52 ±3397.55 ng/ml*h^2 | CL [5, 7]: 0.01 ±0.00 (mg/kg)/(ng/ml)/h | Vd [5, 7]: 0.11 ±0.00 (mg/kg)/(ng/ml) | % Change in AUC0-t of DAS [5, 8]: 166.53% | % Change in AUMC0-∞ of DAS [5, 8]: 0.34% | % Change in Cmax of DAS [5, 8]: 213.26% | % Change in Kel of DAS [5, 8]: 93.85% | % Change in Tmax of DAS [5, 8]: 83.33% | Decrease (reduction) in CL of DAS [5, 9]: 36.35% | Decrease (reduction) in Vd of DAS [5, 9]: 67.70% | Decrease in MRT of DAS [5, 9]: 49.12% | AUC(0-inf) [5, 10]: 2500 ± 113 ng·h/mL | AUC(0-t) [5, 10]: 1610 ± 28.9 ng·h/mL | Cmax [5, 10]: 246 ± 3.34 ng/mL | MRT [5, 10]: 11.5 ± 0.81 h | half-life [5, 10]: 7.77 ± 0.65 h | k el [5, 10]: 2.5e-05 s⁻¹ | Elevation of CYP3A2 protein expression ([1]; liver): 91.84% | Elevation of CYP3A2 protein expression ([1]; lumen): 93.47% | Increase of Pgp expression ([2]; liver): 75.62% | Increase of Pgp expression ([2]; lumen): 77.19% | Induction of BCRP protein expression ([3]; liver): 74.82% | Induction of BCRP protein expression ([3]; lumen): 76.05% | Tolerability in acute toxicity studies [6]: well tolerated
